Data reported in ChEMBL document CHEMBL5042506, “Discovery of Orally Available Retinoic Acid Receptor-Related Orphan Receptor γ-t/Dihydroorotate Dehydrogenase Dual Inhibitors for the Treatment of Refractory Inflammatory Bowel Disease” (J Med Chem, 2022).

Experiments:
Format in all cases: ADME, organism-based
[1] = Volume of distribution at steady state in ICR mouse at 1 mg/kg, iv measured over 24 hrs by LC-MS/MS analysis; settings: in vivo, read-out: Vdss
[2] = Clearance in ICR mouse at 1 mg/kg, iv measured over 24 hrs by LC-MS/MS analysis; settings: in vivo
[3] = AUC (0 to last) in ICR mouse at 5 mg/kg, po measured over 24 hrs by LC-MS/MS analysis; parameters: route oral, dose 5 mg/kg, time >24; settings: in vivo
[4] = Cmax in ICR mouse at 1 mg/kg, iv measured over 24 hrs by LC-MS/MS analysis; parameters: route intravenous, dose 1 mg/kg, time >24; settings: in vivo
[5] = AUC (0 to last) in ICR mouse at 1 mg/kg, iv measured over 24 hrs by LC-MS/MS analysis; parameters: route intravenous, dose 1 mg/kg, time >24; settings: in vivo
[6] = Oral bioavailability in ICR mouse at 5 mg/kg measured over 24 hrs by LC-MS/MS analysis; settings: in vivo
[7] = Cmax in ICR mouse at 5 mg/kg, po measured over 24 hrs by LC-MS/MS analysis; parameters: route oral, dose 5 mg/kg, time >24; settings: in vivo

- Vd [1]: 2.95 L/kg
- clearance [2]: 26.6 mL/min/kg
- AUC(0-t) at 24 h [3]: 599 ng·h/mL
- Cmax [4]: 590 ng/mL
- AUC(0-t) at 24 h [5]: 634 ng·h/mL
- bioavailability [6]: 18.9%
- Cmax [7]: 213 ng/mL
SMILES: Cc1c(Nc2nc3c(s2)CCCC3O)cc(Cl)cc1OC1CCN(C(=O)CC(C(F)(F)F)C(F)(F)F)CC1 (racemic)
